System: swine hindlimb vessel
Assay: Staining of lymph vessels with HA-NIR molecule
Assay type: in vivo
Protocol: Four, two-month old, 60 lb white Yorkshire swine (K Bar Livestock, HC 69 Box 270 Sabinal, Tex.) were imaged using protocols which were approved by the Baylor College of Medicine Institutional Animal Care and Use Committee. The animals were anesthetized, intubated, and maintained with isoflurane. Animal body temperature was maintained at 100° F. using a warming blanket. At the end of the procedure, the animals were euthanized and lymph nodes resected with fluorescence guidance.
Continuous-wave optical imaging of the fluorescent NIR dyes was performed with a custom built intensified charged-coupled device (CCD). Reynolds J S, Troy T L, and Sevick-Muraca E M. Multipixel techniques for frequency-domain photon migration imaging. Biotechnol Prog 13: 669-680, 1997, incorporated herein by reference in its entirety for all purposes. Briefly, the device had three principal components: 1) a NIR-sensitive image intensifier (model FS9910C ITT Night Vision, Roanoke, Va.); 2) a 16-bit dynamic range, frame transfer CCD camera (Roper Scientific, Tucson, Ariz.); and 3) a 785-nm laser diode (Thorlabs) used to provide the excitation light for activating ICG and hyaluronan-NIR. The 785-nm laser diode beam was expanded by using a planoconvex lens and a holographic optical diffuser such that approximately 0.08 m^2 of the swine's body was illuminated. A 785-nm holographic notch band rejection filter (model HNPF-785.0-2.0, Kaiser Optical Systems, Ann Arbor, Mich.) and an 830-nm image quality bandpass filter (model 830.0-2.0, Andover, Salem, N.H.) were placed before the 28-mm Nikkor lens (Nikon) to selectively reject the excitation light and pass the emitted 830-nm wavelength. A total of 400 to 1,000 images with 512×512 resolution and 200 ms exposure time were acquired enabling near-real time visualization of ICG trafficking. For image registration, white light images were acquired by replacing the holographic and bandpass filters with a neutral density filter and illuminating the surface of the swine with a low-power lamp. […]

CC1(C)C(/C=C/C=C/C=C/C=C2\N(CCCCS(=O)(=O)O)c3ccc4ccccc4c3C2(C)C)=[N+](CCCCS(=O)(=O)[O-])c2ccc3ccccc3c21 [ICG, indocyanine green]
normalized fluorescent intensity in ROI as a function of time (image acquisition 6 min, swine leg lymph vessel): fluctuation and net reduction of intensity
propulsion of packets (swine hindlimb vessel, 64 μM HA-NIR, 32 μM ICG): observed
fluorescence intensity along the length of the vessel and with time (three-dimensional plots, swine lymph vessels): varies with time and length along the vessel

From US8609067B2, “Method of measuring propulsion in lymphatic structures” (Board of Regents of the University of Texas System, priority 2006, dated 2013)
